According to patent publication US9751825B2, “TAK1 kinase inhibitors, compositions, and used related thereto” (Emory University, priority 2011, dated 2017):
“Also recorded” adds a separate entry of the source. Where two headings read alike, the source gives them in different places. Blank lines part the entries; values can stand above or below the compound they belong to.

Tests used:
[1] = test system: breast, prostate and lung carcinoma and non-tumor cell lines; assay type: cell-based
Method: (§1) The assay consists of treatment of cells with the synthetic compounds (a range of concentrations) and subsequent quantification of the cells by staining with methylene blue and measuring optical density of the resulting colored solution. The measured optical densities are normalized to a vehicle-control and the normalized values are used to determine IC50 values for a given compound using SigmaPlot software, Systat Software, Inc., San Jose, Calif. Cells were seeded in 96-well plate at 2-5,000 cells/well in 100 μl. Next day cells were treated with HDAB compounds. Stocks of compounds (10 mM) were prepared by dissolving in DMSO. Consecutive dilutions ranging 10 nM-100 μM concentrations were prepared as 2× solutions in media, and 100 μl solutions were added to cells for treatment. DMSO was used as a vehicle control. Cells were incubated with compounds for 48 hours at 37° C. in a CO2-incubator. For cell staining, media was removed and cells were fixed and stained with 0.5% Methylene blue in water/methanol (50:50) solution for 1 hour at room temperature (RT). After extensive rinsing in ddH2O the plates were dried over-night. Cells were solubilized in 100 μl/well of 1% SDS in PBS for 10 minutes at RT, the absorbance at 650 nm (methylene-blue absorbance) and 540 nm (background) was read with a SpectraMax fluorimeter and the difference Abs650-Abs540 was calculated.
Assays were carried out with a panel of breast, prostate and lung carcinoma and non-tumor cell lines with HDAB-001. […] The selectivity trend for HDAB001 was further validated in a set of prostate carcinoma and non-tumor epithelial cell lines.

[2] = Stability of the isolated product at room temperature; assay type: physicochemical
phosphorylation of Smad2 = assay: Phosphorylation of Smad2 in TGFβ1-treated cells; assay type: cell-based; settings: 2 ng/ml TGFβ1 for 2 hours; HDAB001 10 μM
Method: (§2) MEK inhibitor U0126 inhibits phosphorylation of ERK and EGFR inhibitor blocks EGFR-mediated phospho-ERK in MCF10A.
(§3) The selectivity of the HDAB001 and HDAB006 compounds was tested in several cell-based assays examining the kinase activity of RAF, MEK, EGFR and TGFBR1. Several known inhibitors of the above kinases were used for control. Two luciferase reporters NF-KB-Luc and SBE-Luc were transfected in MDA-MB-231 cells to assess the effect of compounds on NF-KB and TGF-beta receptor-Smad signaling events. […] See Safina et al., TAK1 is required for TGF-[beta]1-mediated regulation of matrix metalloproteinase-9 and metastasis. Oncogene, 2008, 27, 1198-1207. […] The kinase activities of TGF-beta receptors type I and type II are required for phosphorylation of Smad2.

[3] = test system: prostate cancer cells (PC3) and breast cancer MDA-MB-231 cells; assay: Tumor cell growth with kinase inhibitors, with or without TNFα (FIG. 2); assay type: cell-based; settings: 48 hrs; for tumor cell growth: 5 μM U0126, 10 μM 1478, 5 μM 5Z-7-oxozeanol, 5 μM HDAB001, 5 μM SB431542; for repression of tumor cell growth together with TNFα: TNFα (10 ng/ml)
From the text: The response of prostate cancer cells (PC3, FIG. 2) and breast cancer MDA-MB-231 cells to HDAB001 was compared with responses to known kinase inhibitors, including 5Z-7-oxozeanol, a selective inhibitor of TAK1; U0126, a selective MEK inhibitor; AG1478, a selective EGFR inhibitor; SB431542, TGFBR1 inhibitor.

RWPE-2 = assay: Cytotoxicity of HDAB001 in prostate carcinoma cell lines, RWPE-2; assay type: cell-based; settings: RWPE-2, AR pos, tumor, metastatic
Method: as §1, with “calculated. […]” for “calculated.”

[4] = test system: phosphorylation of ERK1/2; assay: Phosphorylation of ERK1/2 in MDA-MB-231 cells; assay type: cell-based; settings: 2 ng/ml TGFβ1 for 2 hours, 10 μM HDAB001, 5 μM U0126
Method: as §2, §3

ER-positive cell lines = assay: Cytotoxicity in ER-positive breast carcinoma cell lines; assay type: cell-based; settings: three ER-positive cell lines
Method: as §1, with “calculated. […]” for “calculated.”

[5] = test system: Non-tumor MCF10A (ER-, PR-) cells; assay: Cytotoxicity in non-tumor MCF10A cells; assay type: cell-based, human
Method: as §1, with “calculated. […]” for “calculated.”

RWPE-1 = assay: Cytotoxicity of HDAB001 in prostate cell lines, RWPE-1 (non-tumor); assay type: cell-based; settings: RWPE-1, AR pos
Method: as §1, with “calculated. […]” for “calculated.”

LNCaP = assay: Cytotoxicity of HDAB001 in prostate carcinoma cell lines, LNCaP; assay type: cell-based; settings: AR pos, tumor
Method: as §1, with “calculated. […]” for “calculated.”

LNCaP-C4-2 = assay: Cytotoxicity of HDAB001 in prostate carcinoma cell lines, LNCaP-C4-2; assay type: cell-based; settings: LNCaP-C4-2, AR pos, ind, metastatic
Method: as §1, with “calculated. […]” for “calculated.”

[6] = test system: breast carcinoma MDA-MB-231 cells; assay: Cytotoxicity assay (methylene blue staining), MDA-MB-231 cells; assay type: cell-based
Method: as §1

[7] = test system: Non-tumor MCF12A (ER+) cells; assay: Cytotoxicity in non-tumor MCF12A cells; assay type: cell-based, human
Method: as §1, with “calculated. […]” for “calculated.”

ER/HER2-positive lines = assay: Cytotoxicity in ER/HER2-positive breast carcinoma lines; assay type: cell-based; settings: two ER/HER2-positive lines
Method: as §1, with “calculated. […]” for “calculated.”

phosphorylation of ERK = assay: Phosphorylation of ERK in non-tumor MCF10A cells with EGF-mediated signaling; assay type: cell-based, human; settings: 10 μM HDAB001, 10 μM AG1478
Method: as §2, §3

[8] = test system: mouse carcinoma cell line 4T1; assay: Cytotoxicity in mouse carcinoma cell line 4T1; assay type: cell-based; settings: 4T1 (from BALB/c mice)
Method: as §1, with “calculated. […]” for “calculated.”

SBE-Luc = SBE-Luc luciferase reporter (TGF-beta receptor-Smad signaling) in MDA-MB-231 cells; assay type: cell-based
Method: FIG. 3A-B show data on the luciferase activity of NFkB-Luc and SBE-Luc reporters in MDA-MB-231 control, dnTAK1 or cells treated with HDAB001 and HDAB006, P-values by the ANOVA test.
as §3

PC3 = assay: Cytotoxicity of HDAB001 in prostate carcinoma cell lines, PC3; assay type: cell-based; settings: PC3, AR neg, metastatic
Method: as §1, with “calculated. […]” for “calculated.”

[9] = triple-negative MDA-MB-231 cells

SMILES: COc1cccc2c1C(=O)c1c(O)c3c(c(O)c1C2=O)C[C@@](O)(C(=O)CO)C[C@@H]3O[C@H]1C[C@H](N)[C@H](O)[C@H](C)O1 [Doxorubicin, reference compound]
more toxic to non-tumor MCF10A than to breast cancer MDA-MB-231 cells ([1]; human, 48 h): 3-10 fold

stability after isolation [2]: decomposed at room temperature
SMILES: COC(=O)/C=C\C=C(\C(=O)N(C)OC)c1ccc(Cl)c(Cl)c1 [Compound 1-63h, (2Z,4E)-methyl 5-(3,4-dichlorophenyl)-6-(methoxy(methyl)amino)-6-oxohexa-2,4-dienoate]

SMILES: NC(=O)c1ccc(-c2nc(-c3ccc4c(c3)OCO4)c(-c3ccccn3)[nH]2)cc1 [SB431542, reference compound]
phosphorylation of Smad2 (phosphorylation of Smad2): blocked
tumor cell growth [3]: resistant

SMILES: COc1cc(O)c2c(c1)/C=C/C[C@H](O)[C@H](O)C(=O)/C=C\C[C@H](C)OC2=O [5Z-7-oxozeanol]
tumor cell growth [3]: markedly inhibited
repression of tumor cell growth together with TNFα [3]: cooperated with TNFα

SMILES: COC(=O)/C=C\C=C(\C(=O)OC)c1ccc(Cl)c(Cl)c1 [HDAB001]
IC50 (RWPE-2): 2400 nM
phosphorylation of Smad2 (phosphorylation of Smad2): did not affect
phosphorylation of ERK1/2 [4]: did not affect
IC50 (ER-positive cell lines): 300 to 750 nM
IC50 [5]: 48 µM
IC50 (RWPE-1): 40.1 µM
IC50 (LNCaP): 2100 nM
IC50 (LNCaP-C4-2): 500 nM
IC50 ([6]; MDA-MB-231 cells, 48 hours incubation, methylene blue staining): 4.62 µM
IC50 [6, 9]: 3.7 µM
IC50 [7]: > 100 µM
IC50 (ER/HER2-positive lines): 1000 to 1500 nM
phosphorylation of ERK in the presence of EGF-mediated signaling (phosphorylation of ERK): did not affect
IC50 [8]: 530 nM
TGF-beta reporter activity (SBE-Luc): did not affect
IC50 (PC3): 2300 nM
tumor cell growth [3]: markedly inhibited
repression of tumor cell growth together with TNFα [3]: cooperated with TNFα
IC50 in non-tumor MCF10A and MCF12A cells relative to tumor cells ([1]; non-tumor vs tumor cells): ~20 fold
selectivity for tumor cells compared to non-tumor cells ([1]; tumor vs non-tumor cells): at least twenty-fold

SMILES: COC(=O)/C=C\C=C(\C(=O)OC)c1ccc(Br)c(Br)c1 [HDAB022, (2E,4Z)-dimethyl 2-(3,4-dibromophenyl)hexa-2,4-dienedioate]
IC50 ([6]; Homo sapiens, MDA-MB-231 cells, 48 hours incubation, methylene blue staining): 2.16 µM

SMILES: O=c1[nH]cc(F)c(=O)[nH]1 [Compound 5FU, 5-FluororoUricil, reference compound]
IC50 [5]: 1.8 µM
IC50 [6, 9]: 5.7 µM
more toxic to non-tumor MCF10A than to breast cancer MDA-MB-231 cells [1]: 3-10 fold

SMILES: N#CC(=C(/N)Sc1ccccc1N)/C(C#N)=C(\N)Sc1ccccc1N [Compound U0126]
phosphorylation of ERK1/2 [4]: inhibits; also recorded: effectively blocked
tumor cell growth [3]: less sensitive

SMILES: COc1cc2ncnc(Nc3cccc(Cl)c3)c2cc1OC [AG1478]
phosphorylation of ERK in the presence of EGF-mediated signaling (phosphorylation of ERK): blocked
tumor cell growth [3]: resistant
